According to patent US12570648B2, “6,7-dihydro-5H-pyrido[2,3-c]pyridazine derivatives and related compounds as Bcl-xL protein inhibitors and pro-apoptotic agents for treating cancer” (LES LABORATOIRES SERVIER, priority 2019, dated 2026):
pIC50, pKi: −log10 of the molar value.

Columns and labels:
[1] = target: His-His-(EK)-hsBCLXL(2-197)[N197C] (Homo sapiens (Human), UniProt Q07817, N197C); test: Fluorescence quenching assay; type: binding; settings: 1 nM Cy5-labelled protein, 400 nM PUMA peptide, 2 hours at 23° C.; KI determined from IC50
Outline: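 Cy5-labelled BCL-xL (1 nM) with TQ5WS quencher-labelled PUMA peptide (400 nM); displacement by compound (11-point dilution) raises fluorescence. Buffer 10 mM HEPES, 150 mM NaCl, 0.05% Tween 20, pH 7.4, 5% DMSO; 2 h at 23° C, Ex 620/Em 680 nm. Ki derived from IC50.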

H146 cells = test: H146 cell viability using MTT assay; type: cell-based; settings: Homo sapiens, NCI-H146, 48 h exposure
Procedure: MTT colorimetric assay is based on the mitochondrial reduction of tetrazolium salt by living cells. The viable cell number is proportional to the production of formazan salts, which can be read spectrophotometrically at 540 nm.
MOLT-4 and H146 cells were purchased from ATCC and cultivated in RPMI 1640 supplemented with 10% heat inactivated fetal bovine serum, penicillin (100 IU/ml), streptomycin (100 μg/ml) and L-glutamine (2 mM). Cells were cultured at 37° C. in a humidified atmosphere containing 5% CO2. Cells were seeded in 96 microwell plates (150p per well) and exposed to the compounds for 48 h (3.16 fold serially diluted; 9 concentrations each, triplicates). At the end of incubation time, 15 μL of MTT solution (5 mg/ml) were added per well and the cells were incubated for another 4 h. Then, 100 μL of 10% Sodium Dodecyl Sulfate (SDS)/HCl 10 mM were added per well and the plate was incubated overnight, before measurement of optical density at 540 nm. IC50s were calculated using standard four-parametric curve fitting.

MOLT-4 cells = test: MOLT-4 cell viability using MTT assay; type: cell-based; settings: Homo sapiens, MOLT-4, 48 h, 48 h exposure
Procedure: MTT colorimetric assay is based on the mitochondrial reduction of tetrazolium salt by living cells.
Cells were cultured at 37° C. in a humidified atmosphere containing 5% CO2. […] At the end of incubation time, 15 μL of MTT solution (5 mg/ml) were added per well and the cells were incubated for another 4 h. […] IC50s were calculated using standard four-parametric curve fitting.

Chain of His-His-(EK)-hsBCLXL(2-197)[N197C] (Q07817 2-197 N197C): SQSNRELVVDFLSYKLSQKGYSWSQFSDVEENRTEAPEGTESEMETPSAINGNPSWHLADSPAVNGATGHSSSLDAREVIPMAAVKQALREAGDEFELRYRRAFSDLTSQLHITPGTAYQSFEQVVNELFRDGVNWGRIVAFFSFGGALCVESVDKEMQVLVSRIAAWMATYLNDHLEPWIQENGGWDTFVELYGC

What does the source list for `CNCCN[C@@H]1Cc2c(nnc(Nc3nc4ccccc4s3)c2C)N(c2nc(C(=O)O)c(CCCOc3ccc(CCCN(C)C)cc3F)s2)C1` [Example 39, 2-[(6R)-3-[(1,3-Benzothiazol-2-yl)amino]-4-methyl-6-{[2-(methylamino)ethyl]amino}-5H,6H,7H,8H-pyrido[2,3-c]pyridazin-8-yl]-5-(3-{4-[3-(dimethylamino)propyl]-2-fluorophenoxy}propyl)-1,3-thiazole-4-carboxylic acid]?
pKi [1]: 11.01; pIC50 (H146 cells): 7.47; pIC50 (MOLT-4 cells): 7.43

`Cc1c(Nc2nc3ccccc3s2)nnc2c1CCCN2c1nc(C(=O)O)c(CCCOc2ccc(C#CCN(C)C)cc2C(F)(F)F)s1` [Example 40, 2-{3-[(1,3-Benzothiazol-2-yl)amino]-4-methyl-5H,6H,7H,8H-pyrido[2,3-c]pyridazin-8-yl}-5-(3-{4-[3-(dimethylamino)prop-1-yn-1-yl]-2-(trifluoromethyl)phenoxy}propyl)-1,3-thiazole-4-carboxylic acid] was tested. Which pKi [1] did it give?
Its pKi is 10.24.

What about the pIC50 (H146 cells) of the same compound?
Its pIC50 is 7.68.

And the pIC50 (MOLT-4 cells)?
Its pIC50 is 8.09.

With `Cc1c(Nc2nc3ccccc3s2)nnc2c1CCCN2c1nc(C(=O)O)c(CCCOc2ccc(C#CC(C)N3CCN(C)CC3)cc2F)s1` (stereo not drawn) [Example 41, 2-[3-(1,3-Benzothiazol-2-ylamino)-4-methyl-6,7-dihydro-5H-pyrido[2,3-c]pyridazin-8-yl]-5-[3-[2-fluoro-4-[3-(4-methylpiperazin-1-yl)but-1-ynyl]phenoxy]propyl]thiazole-4-carboxylic acid] as the compound, how does the pKi [1] read?
Its pKi is 11.60.

And the pIC50 (H146 cells)?
Its pIC50 is 8.44.

And the pIC50 (MOLT-4 cells)?
The pIC50 was 9.44.

`Cc1c(Nc2nc3ccccc3s2)nnc2c1CCCN2c1nc(C(=O)O)c(CCCOc2ccc(C#CCN3CCCC3)cc2F)s1` [Example 42, 2-[3-(1,3-Benzothiazol-2-ylamino)-4-methyl-6,7-dihydro-5H-pyrido[2,3-c]pyridazin-8-yl]-5-[3-[2-fluoro-4-(3-pyrrolidin-1-ylprop-1-ynyl)phenoxy]propyl]thiazole-4-carboxylic acid] was tested. Which pKi [1] did it give?
Its pKi is 11.55.

And the pIC50 (H146 cells)?
Its pIC50 is 8.52.

And the pIC50 (MOLT-4 cells)?
Its pIC50 is 9.49.

`Cc1c(Nc2nc3ccccc3s2)nnc2c1CCCN2c1nc(C(=O)O)c(CCCOc2ccc(C#CC(C)N3CCCC3)cc2F)s1` (stereo not drawn) [Example 43, 2-[3-(1,3-Benzothiazol-2-ylamino)-4-methyl-6,7-dihydro-5H-pyrido[2,3-c]pyridazin-8-yl]-5-[3-[2-fluoro-4-(3-pyrrolidin-1-ylbut-1-ynyl)phenoxy]propyl]thiazole-4-carboxylic acid] was tested. Which pKi [1] did it give?
The pKi was 11.51.

And the pIC50 (H146 cells)?
The pIC50 was 7.93.

What about the pIC50 (MOLT-4 cells) of the same compound?
Its pIC50 is 8.77.

What does the source list for `Cc1c(Nc2nc3ccccc3s2)nnc2c1CCCN2c1nc(C(=O)O)c(CCCOc2ccc(OCCN(C)C)cc2)s1` [Example 44, 2-{3-[(1,3-Benzothiazol-2-yl)amino]-4-methyl-5H,6H,7H,8H-pyrido[2,3-c]pyridazin-8-yl}-5-(3-{4-[2-(dimethylamino)ethoxy]phenoxy}propyl)-1,3-thiazole-4-carboxylic acid]?
pKi [1]: 11.82; pIC50 (H146 cells): 7.97; pIC50 (MOLT-4 cells): 8.39

With `Cc1c(Nc2nc3ccccc3s2)nnc2c1CCCN2c1nc(C(=O)O)c(CCCOc2ccc(C#CCN3CCC3)cc2F)s1` [Example 45, 5-(3-{4-[3-(Azetidin-1-yl)prop-1-yn-1-yl]-2-fluorophenoxy}propyl)-2-{3-[(1,3-benzothiazol-2-yl)amino]-4-methyl-5H,6H,7H,8H-pyrido[2,3-c]pyridazin-8-yl}-1,3-thiazole-4-carboxylic acid] as the compound, how does the pKi [1] read?
Its pKi is 11.31.

And the pIC50 (H146 cells)?
Its pIC50 is 7.97.

What about the pIC50 (MOLT-4 cells) of the same compound?
Its pIC50 is 9.26.

`Cc1c(Nc2nc3ccccc3s2)nnc2c1CCCN2c1nc(C(=O)O)c(CCCOc2ccc(C#CCN3CCCCC3)cc2F)s1` [Example 46, 2-[3-(1,3-Benzothiazol-2-ylamino)-4-methyl-6,7-dihydro-5H-pyrido[2,3-c]pyridazin-8-yl]-5-[3-[2-fluoro-4-[3-(1-piperidyl)prop-1-ynyl]phenoxy]propyl]thiazole-4-carboxylic acid] was tested. Which pKi [1] did it give?
Its pKi is 10.82.

And the pIC50 (H146 cells)?
The pIC50 was 7.95.

And the pIC50 (MOLT-4 cells)?
Its pIC50 is 8.92.

`Cc1c(Nc2nc3ccccc3s2)nnc2c1CCCN2c1nc(C(=O)O)c(CCCOc2ccc(C#CCN3CCOCC3)cc2F)s1` [Example 47, 2-[3-(1,3-Benzothiazol-2-ylamino)-4-methyl-6,7-dihydro-5H-pyrido[2,3-c]pyridazin-8-yl]-5-[3-[2-fluoro-4-(3-morpholinoprop-1-ynyl)phenoxy]propyl]thiazole-4-carboxylic acid] was tested. Which pKi [1] did it give?
Its pKi is 11.05.

What about the pIC50 (H146 cells) of the same compound?
The pIC50 was 8.14.

And the pIC50 (MOLT-4 cells)?
Its pIC50 is 9.02.

Which results are given for `Cc1c(Nc2nc3ccccc3s2)nnc2c1CCCN2c1nc(C(=O)O)c(CCCOc2ccc(C#CCN3CCN(C)CC3)cc2F)s1` [Example 48, 2-[3-(1,3-Benzothiazol-2-ylamino)-4-methyl-6,7-dihydro-5H-pyrido[2,3-c]pyridazin-8-yl]-5-[3-[2-fluoro-4-[3-(4-methylpiperazin-1-yl)prop-1-ynyl]phenoxy]propyl]thiazole-4-carboxylic acid]?
pKi [1]: 11.80; pIC50 (H146 cells): 8.65; pIC50 (MOLT-4 cells): 9.51

With `Cc1c(Nc2nc3ccccc3s2)nnc2c1CCCN2c1nc(C(=O)O)c(CCCOc2ccc(C#CCN3CCC(F)(F)CC3)cc2F)s1` [Example 49, 2-{3-[(1,3-Benzothiazol-2-yl)amino]-4-methyl-5H,6H,7H,8H-pyrido[2,3-c]pyridazin-8-yl}-5-(3-{4-[3-(4,4-difluoropiperidin-1-yl)prop-1-yn-1-yl]-2-fluorophenoxy}propyl)-1,3-thiazole-4-carboxylic acid] as the compound, how does the pKi [1] read?
The pKi was 10.19.

What about the pIC50 (H146 cells) of the same compound?
Its pIC50 is 7.48.

What about the pIC50 (MOLT-4 cells) of the same compound?
The pIC50 was 8.67.

Which results are given for `Cc1c(Nc2nc3ccccc3s2)nnc2c1CCCN2c1nc(C(=O)O)c(CCCOc2ccc(C#CCN3CCCC(F)(F)C3)cc2F)s1` [Example 50, 2-{3-[(1,3-Benzothiazol-2-yl)amino]-4-methyl-5H,6H,7H,8H-pyrido[2,3-c]pyridazin-8-yl}-5-(3-{4-[3-(3,3-difluoropiperidin-1-yl)prop-1-yn-1-yl]-2-fluorophenoxy}propyl)-1,3-thiazole-4-carboxylic acid]?
pKi [1]: 10.15; pIC50 (H146 cells): 7.06; pIC50 (MOLT-4 cells): 8.43

With `Cc1c(Nc2nc3ccccc3s2)nnc2c1CCCN2c1nc(C(=O)O)c(CCCOc2ccc(C#CCN(C)C)cc2Cl)s1` [Example 51, 2-{3-[(1,3-Benzothiazol-2-yl)amino]-4-methyl-5H,6H,7H,8H-pyrido[2,3-c]pyridazin-8-yl}-5-(3-{2-chloro-4-[3-(dimethylamino)prop-1-yn-1-yl]phenoxy}propyl)-1,3-thiazole-4-carboxylic acid] as the compound, how does the pKi [1] read?
Its pKi is 10.92.

And the pIC50 (H146 cells)?
Its pIC50 is 8.02.

What about the pIC50 (MOLT-4 cells) of the same compound?
The pIC50 was 8.60.

With `Cc1c(Nc2nc3ccccc3s2)nnc2c1CCCN2c1nc(C(=O)O)c(CCCOc2ccc(OCCN3CCCC3)cc2)s1` [Example 52, 2-{3-[(1,3-Benzothiazol-2-yl)amino]-4-methyl-5H,6H,7H,8H-pyrido[2,3-c]pyridazin-8-yl}-5-(3-{4-[2-(pyrrolidin-1-yl)ethoxy]phenoxy}propyl)-1,3-thiazole-4-carboxylic acid] as the compound, how does the pKi [1] read?
The pKi was 11.89.

What about the pIC50 (H146 cells) of the same compound?
The pIC50 was 7.97.

And the pIC50 (MOLT-4 cells)?
Its pIC50 is 8.62.

How did the pKi [1] turn out when `Cc1c(Nc2nc3ccccc3s2)nnc2c1CCCN2c1nc(C(=O)O)c(CCCOc2ccc(CCN(C)C)cc2F)s1` [Example 53, 2-{3-[(1,3-Benzothiazol-2-yl)amino]-4-methyl-5H,6H,7H,8H-pyrido[2,3-c]pyridazin-8-yl}-5-(3-{4-[2-(dimethylamino)ethyl]-2-fluorophenoxy}propyl)-1,3-thiazole-4-carboxylic acid] was run?
The pKi was 11.18.

And the pIC50 (H146 cells)?
The pIC50 was 7.83.

And the pIC50 (MOLT-4 cells)?
Its pIC50 is 8.01.

`Cc1c(Nc2nc3ccccc3s2)nnc2c1CCCN2c1nc(C(=O)O)c(CCCOc2ccc(C#CCNCC[N+](C)(C)CCCS(=O)(=O)[O-])cc2F)s1` [Example 54, 3-[2-[3-[4-[3-[2-[3-(1,3-Benzothiazol-2-ylamino)-4-methyl-6,7-dihydro-5H-pyrido[2,3-c]pyridazin-8-yl]-4-carboxy-thiazol-5-yl]propoxy]-3-fluoro-phenyl]prop-2-ynylamino]ethyl-dimethyl-ammonio]propane-1-sulfonate] was tested. Which pKi [1] did it give?
Its pKi is 11.92.

What about the pIC50 (H146 cells) of the same compound?
The pIC50 was 6.23.

What about the pIC50 (MOLT-4 cells) of the same compound?
Its pIC50 is 7.33.

With `Cc1c(Nc2nc3ccccc3s2)nnc2c1CCCN2c1nc(C(=O)O)c(CCCOc2ccc(C#CCN3CCCC(O)C3)cc2F)s1` (stereo not drawn) [Example 55, 2-[3-(1,3-Benzothiazol-2-ylamino)-4-methyl-6,7-dihydro-5H-pyrido[2,3-c]pyridazin-8-yl]-5-[3-[2-fluoro-4-[3-(3-hydroxy-1-piperidyl)prop-1-ynyl]phenoxy]propyl]thiazole-4-carboxylic acid] as the compound, how does the pKi [1] read?
Its pKi is 11.04.

And the pIC50 (H146 cells)?
Its pIC50 is 8.25.

What about the pIC50 (MOLT-4 cells) of the same compound?
The pIC50 was 9.02.
